The target of test [1] is T1, catalytic domain of human recombinant MMP-3 (Homo sapiens, UniProt P08254).
T1 construct: made in house
The test is described as follows: In vitro MMP inhibition assay, MMP-3 catalytic domain (fluorogenic peptide substrate cleavage, Ki). In kind it is biochemical. Particulars: human MMP-3, catalytic domain (CD); read-out: hMMP Ki 03/CD. How it is done:
(§1) Matrix Metalloproteinase inhibitor compounds were analyzed in in vitro MMP Inhibition assays to determine their ability to inhibit the MMP cleavage of peptide substrates. Inhibition constants (Ki) were calculated from the assayed compound-MMP interactions.
(§2) Human recombinant MMP-1, MMP-2, MMP-3, MMP-7, MMP-9, MMP-12, MMP-13, MMP-14 and MMP-15 were used in these assays. The enzymes are prepared following known laboratory procedures. Protocols for the preparation and use of these enzymes are available in the scientific literature. See, e.g., Enzyme Nomenclature (Academic Press, San Diego, Calif., 1992) and the citations therein. See also Frije et al., J. Biol. Chem., 26(24), 16766-73 (1994).
The catalytic domain MMP-3 cDNA may be used to express the catalytic domain enzyme in E. coli inclusion bodies. Then the enzyme is solubilized in urea, purified on a preparative […] reverse phase HPLC column, and refolded in the presence of zinc acetate and purified for use.
The fluorogenic, methoxycoumarin-containing polypeptide substrate Mca-Arg-Pro-Lys-Pro-Val-Glu-Nva-Trp-Arg-Lys(Dnp)-NH2 (Bachem catalog number M-2110) was used as the MMP substrate in the MMP inhibition assays for catalytic domain of human recombinant MMP-3 (which refers to the catalytic domain of stromelysin). Here, “MCA” is 7-methoxycoumarin-4-yl acetyl and “Dpa” is 3-(2,4-dinitrophenyl)-L-2,3-di-aminopropionyl group. In the absence of MMP inhibitory activity, the substrate is cleaved at the Gly-Leu peptide bond. The cleavage separates the highly fluorogenic peptide from the 2,4-dinitrophenyl quencher, resulting in an increase of fluorescent intensity.
For the human MMP-3 assay, dilutions of the inhibitors (or salts thereof) were prepared in 100% DMSO. The stock solutions were diluted in Buffer B (50 mM N-morpholinoethane sulfonate (“MES”), 100 mM NaCl, 10 mM CaCl2, 0.005% polyoxyethylene 23 lauryl ether, pH 6.0)) to obtain solutions with different compound concentrations, i.e., assay solutions with different concentrations of the assayed MMP inhibitory compound in 1% DMSO. The experiment controls contained the same amount of Buffer B/DMSO as the assayed sample, but contained no inhibitor.
(§3) To determine Ki, the inhibitor samples are incubated at room temperature for 1 hr in the presence of enzyme and then 4 μM of appropriate MMP substrate was added, and samples were analyzed on a Tecan SpectraFlour Plus plate reader. The excitation wavelength is 330 nm, and the emission (fluorescence) wavelength is 420 nm. In the absence of MMP inhibitory activity, the substrate is cleaved at the Gly-Leu bond resulting in an increase of relative fluorescence. Inhibition is observed as a reduced rate of increase in relative fluorescence.
The inhibitors are analyzed using a single low enzyme concentration with a single substrate concentration fixed at or below the Km. This protocol is a modification of method by Knight et al., FEBS Lett., 296(3), 263-266 (1992). Apparent inhibitory constants are determined by non-linear regression of reaction velocity as a function of inhibitor and enzyme concentration using Morrison's equation, as described by Kuzmic, Anal. Biochem. 286, 45-50 (2000). Modifications were made in the non-linear regression method to allow a common control reaction rate and effective enzyme concentration to be shared between all dose-response relationships on a given assay plate. Since the substrate concentration was chosen to be at or below the Km, the apparent Ki's from this analysis were reported as Ki's without correction for the influence of substrate.

Another test concerns the target T2, Human recombinant MMP-13 (Homo sapiens, UniProt P45452).
T2 construct: made in house; host or cells: baculovirus expression (insect cells)
Briefly: In vitro MMP inhibition assay, MMP-13 (fluorogenic peptide substrate cleavage, Ki). Particulars: human MMP-13, full length (FL); read-out: hMMP Ki 13/FL. It is filed as biochemical. How it is done:
as §1, §2
The MMP-13 may be obtained as a proenzyme from a full-length cDNA clone using baculovirus expression, as described by V. A. Luckow, “Insect Cell Expression Technology,” Protein Engineering: Principles and Practice, pp. 183-218 (edited by J. L. Cleland et al., Wiley-Liss, Inc., 1996). The expressed proenzyme was first purified over a heparin agarose column, and then over a chelating zinc chloride column. Further details on baculovirus expression systems may be found in, for example, Luckow et al., J. Virol., 67, 4566-79 (1993). See also O'Reilly et al, Baculovirus Expression Vectors: A Laboratory Manual (W. H. Freeman and Co., New York, N.Y., 1992). See also King et al., The Baculovirus Expression System: A Laboratory Guide (Chapman & Hall, London, England, 1992).
All full length MMPs were activated using 4-aminophenylmercuric acetate (“APMA”, Sigma Chemical, St. Louis, Mo.) or trypsin. MMP-9 also was activated using human recombinant MMP-3 following standard cloning and purification techniques.
The fluorogenic, methoxycoumarin-containing polypeptide substrate MCA-ArgProLeuGlyLeuDpaAlaArgGluArgNH2 was used as the MMP substrate in the MMP inhibition assays for human recombinant MMP-1, MMP-2, MMP-7, MMP-9, MMP-12, MMP-13, MMP-14 and MMP-15. Here, “MCA” is 7-methoxycoumarin-4-yl acetyl and “Dpa” is 3-(2,4-dinitrophenyl)-L-2,3-di-aminopropionyl group. In the absence of MMP inhibitory activity, the substrate is cleaved at the Gly-Leu peptide bond. The cleavage separates the highly fluorogenic peptide from the 2,4-dinitrophenyl quencher, resulting in an increase of fluorescent intensity.
For the human MMP-1, MMP-2, MMP-7, MMP-9, MMP-12, MMP-13, MMP-14 and MMP-15 assays, dilutions of the inhibitors (or salts thereof) were prepared in 100% dimethyl sulfoxide (DMSO). The stock solutions were diluted in Buffer A (100 mM Tris-HCl, 100 mM NaCl, 10 mM CaCl2, 0.005% polyoxyethylene 23 lauryl ether, pH 7.5) to obtain solutions with different compound concentrations, i.e., assay solutions with different concentrations of the assayed MMP inhibitory compound in 1% DMSO. The experiment controls contained the same amount of Buffer A/DMSO as the assayed sample, but contained no inhibitor.
as §3
The inhibitors are analyzed using a single low enzyme concentration with a single substrate concentration fixed at or below the Km. This protocol is a modification of method by Knight et al., FEBS Lett., 296(3), 263-266 (1992). Apparent inhibitory constants are determined by non-linear regression of reaction velocity as a function of inhibitor and enzyme concentration using Morrison's equation, as described by Kuzmic, Anal. Biochem. 286, 45-50 (2000). […]

pKi: −log10 of the molar value. Counter-ions that a name gives are not always drawn.

T1 sequence (P08254 100-272 limits assumed): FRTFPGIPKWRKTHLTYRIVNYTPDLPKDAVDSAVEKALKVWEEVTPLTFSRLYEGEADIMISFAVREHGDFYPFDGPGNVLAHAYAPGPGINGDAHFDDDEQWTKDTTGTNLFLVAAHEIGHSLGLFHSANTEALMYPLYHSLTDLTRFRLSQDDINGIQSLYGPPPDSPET

Regarding `COc1cccc(CNC(=O)c2nc3ccc(F)c(OC[C@H]4CO[C@H](CO)CO4)c3c(=O)[nH]2)c1` (relative stereo) [Example 3, 6-Fluoro-5-{[(trans-2,5)-5-(hydroxymethyl)-1,4-dioxan-2-yl]methoxy}-N-(3-methoxybenzyl)-4-oxo-3,4-dihydroquinazoline-2-carboxamide], the pKi in test [1] was 5.07; on Human recombinant MMP-13 it was 7.79.
Take `COc1cccc(CNC(=O)c2nc3scc(COC[C@@H]4CO[C@@H](C(=O)O)CO4)c3c(=O)[nH]2)c1` (relative stereo) [Example 8, Trans-5-(((2-((3-Methoxybenzyl)carbamoyl)-4-oxo-3,4-dihydrothieno[2,3-d]pyrimidin-5-yl)methoxy)methyl)-1,4-dioxane-2-carboxylic acid]: the pKi in test [1] was 5.88; at Human recombinant MMP-13, 8.38.
For `COc1cc(CNC(=O)c2nc3scc(COC[C@@H]4CO[C@@H](CO)CO4)c3c(=O)[nH]2)ccc1F` (relative stereo) [Example 11, N-(4-Fluoro-3-methoxybenzyl)-5-(((trans-5-(hydroxymethyl)-1,4-dioxan-2-yl)methoxy)methyl)-4-oxo-3,4-dihydrothieno[2,3-d]pyrimidine-2-carboxamide] the same measures were 6.18 and 7.96.
The corresponding values for `COc1cc(CNC(=O)c2nc3scc(COC[C@@H]4CO[C@@H](C(=O)O)CO4)c3c(=O)[nH]2)ccc1F` (relative stereo) [Example 12, Trans-5-(((2-((4-Fluoro-3-methoxybenzyl)carbamoyl)-4-oxo-3,4-dihydrothieno[2,3-d]pyrimidin-5-yl)methoxy)methyl)-1,4-dioxane-2-carboxylic acid] are 6.18 and 8.79.
`COc1cc(CNC(=O)c2nc3scc(COC[C@@H]4CO[C@@H](C(N)=O)CO4)c3c(=O)[nH]2)ccc1F` (relative stereo) [Example 15, N-(4-Fluoro-3-methoxybenzyl)-5-(((trans-5-carbamoyl-1,4-dioxan-2-yl)methoxy)methyl)-4-oxo-3,4-dihydrothieno[2,3-d]pyrimidine-2-carboxamide]: the pKi is 6.02 in test [1] and 8.39 at Human recombinant MMP-13.
Take `COc1cccc(CNC(=O)c2nc3ccc(F)c(OC[C@@H]4CO[C@@H](CN)CO4)c3c(=O)[nH]2)c1` (relative stereo) [Example 36, 5-{[(trans 2,5)-5-(aminomethyl)-1,4-dioxan-2-yl]methoxy}-6-fluoro-N-(3-methoxybenzyl)-4-oxo-3,4-dihydroquinazoline-2-carboxamide]: the pKi at Human recombinant MMP-13 is 7.70.
Take `COc1cccc(CNC(=O)c2nc3scc(COC[C@H]4CC[C@H](N)CC4)c3c(=O)[nH]2)c1` [Example 1, 5-({[trans-4-Aminocyclohexyl]methoxy}methyl)-N-(3-methoxybenzyl)-4-oxo-3,4-dihydrothieno[2,3-d]pyrimidine-2-carboxamide]: at Human recombinant MMP-13, the pKi was 7.89.
`COc1cccc(CNC(=O)c2nc3scc(COC[C@H]4CC[C@H](CO)CC4)c3c(=O)[nH]2)c1` [Example 4, N-(3-methoxybenzyl)-5-(((trans-4-(hydroxymethyl)cyclohexyl)methoxy)methyl)-4-oxo-3,4-dihydrothieno[2,3-d]pyrimidine-2-carboxamide]: the pKi in test [1] was 6.47; at Human recombinant MMP-13, 9.33.
For `COc1cccc(CNC(=O)c2nc3scc(COC[C@H]4CC[C@H](C(=O)O)CC4)c3c(=O)[nH]2)c1` [Example 5, Trans-4-(((2-((3-Methoxybenzyl)carbamoyl)-4-oxo-3,4-dihydrothieno[2,3-d]pyrimidin-5-yl)methoxy)methyl)cyclohexanecarboxylic acid] the same measures were 6.41 and 9.66.
Take `COc1cccc(CNC(=O)c2nc3scc(COC[C@H]4CC[C@H](C#N)CC4)c3c(=O)[nH]2)c1` [Example 6, N-(3-Methoxybenzyl)-5-(((trans-4-cyanocyclohexyl)methoxy)methyl)-4-oxo-3,4-dihydrothieno[2,3-d]pyrimidine-2-carboxamide]: the pKi was 6.33 in test [1] and 9.13 on Human recombinant MMP-13.
Regarding `COc1cc(CNC(=O)c2nc3scc(COC[C@H]4CC[C@H](C(=O)O)CC4)c3c(=O)[nH]2)ccc1F` [Example 10, Trans-4-(((2-((4-Fluoro-3-methoxybenzyl)carbamoyl)-4-oxo-3,4-dihydrothieno[2,3-d]pyrimidin-5-yl)methoxy)methyl)cyclohexanecarboxylic acid], the pKi in test [1] was 6.79; on Human recombinant MMP-13 it was 9.84.
In the case of `COc1cc(CNC(=O)c2nc3scc(COC[C@H]4CC[C@H](C(N)=O)CC4)c3c(=O)[nH]2)ccc1F` [Example 13, N-(4-Fluoro-3-methoxybenzyl)-5-(((trans-4-carbamoylcyclohexyl)methoxy)methyl)-4-oxo-3,4-dihydrothieno[2,3-d]pyrimidine-2-carboxamide], the pKi in test [1] was 6.59; on Human recombinant MMP-13, 9.85.
For `COc1cc(CNC(=O)c2nc3scc(COC[C@H]4CC[C@H](C#N)CC4)c3c(=O)[nH]2)ccc1F` [Example 14, N-(4-Fluoro-3-methoxybenzyl)-5-(((trans-4-cyanocyclohexyl)methoxy)methyl)-4-oxo-3,4-dihydrothieno[2,3-d]pyrimidine-2-carboxamide], the values for the pKi (in test [1]; at Human recombinant MMP-13) were 6.46 and 9.32, respectively.
Turning to `COc1cccc(CNC(=O)c2nc3scc(COCCC4CCNCC4)c3c(=O)[nH]2)c1` [Example 26, N-(3-methoxybenzyl)-4-oxo-5-[(2-piperidin-4-ylethoxy)methyl]-3,4-dihydrothieno[2,3-d]pyrimidine-2-carboxamide hydrochloride], the pKi at Human recombinant MMP-13 was 8.03.

Source of the values: US20110009435A1, “HETERO BICYCLIC CARBOXAMIDE DERIVATIVES AND THEIR PHARMACEUTICAL USE AND COMPOSITIONS” (Pfizer, Inc., priority 2007, published 2011).
